For one series, the system named is untreated melanoma. As to conditions: human, in vivo; cited from earlier work.
For another series, the system named is metastatic melanoma. Set-up: method as in PMID 20525992, PMID 27622997, PMID 26027431. As to conditions: ipilimumab monotherapy, previously treated patients; cited from earlier work.
Series [1] is described as follows: Epacadostat plasma pharmacokinetics (LC-MS/MS, noncompartmental analysis). The format is in vivo, human. As to the method: SAS® software, version 9.4 (SAS Institute Inc., Cary, NC) was used to generate all tables, graphs, and statistical analyses. […] Descriptive statistics were used to present summaries of continuous and categorical variables. Survival data (OS, PFS) were analyzed using the nonparametric Kaplan-Meier method.
Thirty-six patients were evaluable for pharmacokinetic analyses. […] Steady-state pharmacokinetic observations (Cycle 1, Day 10) are summarized in Additional file 1: Table S3.

Details of series [2]: method as in PMID 28053021. To be noted: epacadostat monotherapy 300 mg BID, patients with advanced malignancies; cited from earlier work.
Setting [3] is: epacadostat 25 mg BID (n=10), steady state Cycle 1 Day 10.
Setting [4] is: epacadostat 50 mg BID continuous (n=13), steady state Cycle 1 Day 10.
Setting [5] is: epacadostat 50 mg BID intermittent (n=7), steady state Cycle 1 Day 10.
Setting [6] is: epacadostat 300 mg BID (n=6), steady state Cycle 1 Day 10.

Where two headings read alike, the source gives them in different places.

Consider “ipilimumab: anti-CTLA-4 antibody, immune checkpoint inhibitor”, for which, in the series on untreated melanoma, the “Patients with grade 3/4 treatment-emergent AEs” value is given as 56% and the “Rate of irAEs (grade 3/4)” value is 19%. Also, in the series on metastatic melanoma, the Overall response rate was 11%.
Regarding `NS(=O)(=O)NCCNc1nonc1C(=NO)Nc1ccc(F)c(Br)c1` [epacadostat], the “Increase of pharmacokinetic exposures (Cmax, AUC0–12h) with dose” value in series [1] (between 25 mg BID and 300 mg BID) is recorded as “dose-proportional”. Besides, the “CL/F, geometric mean” value in series [1] (setting [3]) was 61.3 L/h; in series [1] (setting [4]), 64.2 L/h; in series [1] (setting [5]), 54.4 L/h; in series [1] (setting [6]) it was 74.8 L/h. Besides, the “CL/F, mean ± SD” value is 68.9 ± 32.1 L/h in series [1] (setting [3]), 69.7 ± 29.8 L/h in series [1] (setting [4]), 57.6 ± 21.7 L/h in series [1] (setting [5]) and 77.6 ± 22.2 L/h in series [1] (setting [6]). The “Cmin, mean ± SD” value in series [1] (setting [3]) was 30 ± 30 nM; in series [1] (setting [4]), 60 ± 50 nM; in series [1] (setting [5]), 60 ± 40 nM; in series [1] (setting [6]), 300 ± 200 nM. In addition, in series [1] (setting [4]), the “tmax, median” value is recorded as 2.0 h. The highest concentration (Cmax) is 400 nM in series [1] (epacadostat 50 mg BID continuous (n=13), steady state Cycle 1 Day 10, read-out: Cmax, geometric mean); 500 ± 200 nM in series [1] (epacadostat 50 mg BID continuous (n=13), steady state Cycle 1 Day 10, read-out: Cmax, mean ± SD); 500 nM in series [1] (epacadostat 50 mg BID intermittent (n=7), steady state Cycle 1 Day 10, read-out: Cmax, geometric mean). Also, the “Cmin, geometric mean” value in series [1] (setting [6]) came to 200 nM. For the same compound, the AUC(0-t) in series [1] (human, plasma, oral, 25 mg, epacadostat 25 mg BID (n=10), steady state Cycle 1 Day 10, read-out: AUC0–12h, geometric mean) came out at 0.9 µM·h; in series [1] (human, plasma, oral, 25 mg, epacadostat 25 mg BID (n=10), steady state Cycle 1 Day 10, read-out: AUC0–12h, mean ± SD) it was 1.1 ± 0.7 µM·h; in series [1] (human, plasma, oral, 50 mg, epacadostat 50 mg BID continuous (n=13), steady state Cycle 1 Day 10, read-out: AUC0–12h, geometric mean), 1.8 µM·h; in series [1] (human, plasma, oral, 50 mg, epacadostat 50 mg BID continuous (n=13), steady state Cycle 1 Day 10, read-out: AUC0–12h, mean ± SD), 1.9 ± 0.8 µM·h; in series [1] (human, plasma, oral, 50 mg, epacadostat 50 mg BID intermittent (n=7), steady state Cycle 1 Day 10, read-out: AUC0–12h, geometric mean), 2.1 µM·h; in series [1] (human, plasma, oral, 50 mg, epacadostat 50 mg BID intermittent (n=7), steady state Cycle 1 Day 10, read-out: AUC0–12h, mean ± SD) it was 2.2 ± 0.7 µM·h. In addition, the AUC(0-t) in series [1] (human, plasma, oral, 300 mg, epacadostat 300 mg BID (n=6), steady state Cycle 1 Day 10, read-out: AUC0–12h, geometric mean) came to 9.2 µM·h; in series [1] (human, plasma, oral, 300 mg, epacadostat 300 mg BID (n=6), steady state Cycle 1 Day 10, read-out: AUC0–12h, mean ± SD) it was 9.5 ± 3 µM·h. Moreover, the half-life in series [1] (human, plasma, oral, 25 mg, epacadostat 25 mg BID (n=10), steady state Cycle 1 Day 10, read-out: t½, geometric mean (converted)) is 7.4 h; in series [1] (human, plasma, oral, 25 mg, epacadostat 25 mg BID (n=10), steady state Cycle 1 Day 10, read-out: t½, mean ± SD (converted)), 9.1 ± 6.1 h; in series [1] (human, plasma, oral, 50 mg, epacadostat 50 mg BID continuous (n=13), steady state Cycle 1 Day 10, read-out: t½, geometric mean (converted)), 5.9 h; in series [1] (human, plasma, oral, 50 mg, epacadostat 50 mg BID continuous (n=13), steady state Cycle 1 Day 10, read-out: t½, mean ± SD (converted)) it was 7.1 ± 5.5 h; in series [1] (human, plasma, oral, 50 mg, epacadostat 50 mg BID intermittent (n=7), steady state Cycle 1 Day 10, read-out: t½, geometric mean (converted)) it was 4.5 h; in series [1] (human, plasma, oral, 50 mg, epacadostat 50 mg BID intermittent (n=7), steady state Cycle 1 Day 10, read-out: t½, mean ± SD (converted)) it was 5.1 ± 2.9 h. Besides, the half-life in series [1] (human, plasma, oral, 300 mg, epacadostat 300 mg BID (n=6), steady state Cycle 1 Day 10, read-out: t½, geometric mean (converted)) is 5.4 h; in series [1] (human, plasma, oral, 300 mg, epacadostat 300 mg BID (n=6), steady state Cycle 1 Day 10, read-out: t½, mean ± SD (converted)), 6.2 ± 3.5 h; in series [1] (human, plasma, po, repeat oral doses of 25 mg BID, 50 mg BID, 50 mg BID intermittent, 300 mg BID, read-out: Mean terminal elimination half-life (t½)), 5 to 9 h. Moreover, the Tmax in series [1] (human, plasma, repeat oral doses of 25 mg BID, 50 mg BID, 50 mg BID intermittent, 300 mg BID, read-out: Median time of maximum observed concentration (tmax)) is around 2 h. For the same compound, the “Geometric mean AUC” value in series [2] is 9.8 µM·h.

These data come from PMC6425606 (Journal for Immunotherapy of Cancer, 2019).
